According to paper PMC6381168, “Anoctamin-4 is a bona fide Ca^2+-dependent non-selective cation channel” (Scientific Reports, 2019):

Target: T1, Ano4 (Mus musculus, UniProt Q8C5H1)
T1 construct: full length, 955 residues, C-terminal Myc tag (pcDNA3), transiently expressed in HEK293 cells
T1 sequence (Q8C5H1 1-955): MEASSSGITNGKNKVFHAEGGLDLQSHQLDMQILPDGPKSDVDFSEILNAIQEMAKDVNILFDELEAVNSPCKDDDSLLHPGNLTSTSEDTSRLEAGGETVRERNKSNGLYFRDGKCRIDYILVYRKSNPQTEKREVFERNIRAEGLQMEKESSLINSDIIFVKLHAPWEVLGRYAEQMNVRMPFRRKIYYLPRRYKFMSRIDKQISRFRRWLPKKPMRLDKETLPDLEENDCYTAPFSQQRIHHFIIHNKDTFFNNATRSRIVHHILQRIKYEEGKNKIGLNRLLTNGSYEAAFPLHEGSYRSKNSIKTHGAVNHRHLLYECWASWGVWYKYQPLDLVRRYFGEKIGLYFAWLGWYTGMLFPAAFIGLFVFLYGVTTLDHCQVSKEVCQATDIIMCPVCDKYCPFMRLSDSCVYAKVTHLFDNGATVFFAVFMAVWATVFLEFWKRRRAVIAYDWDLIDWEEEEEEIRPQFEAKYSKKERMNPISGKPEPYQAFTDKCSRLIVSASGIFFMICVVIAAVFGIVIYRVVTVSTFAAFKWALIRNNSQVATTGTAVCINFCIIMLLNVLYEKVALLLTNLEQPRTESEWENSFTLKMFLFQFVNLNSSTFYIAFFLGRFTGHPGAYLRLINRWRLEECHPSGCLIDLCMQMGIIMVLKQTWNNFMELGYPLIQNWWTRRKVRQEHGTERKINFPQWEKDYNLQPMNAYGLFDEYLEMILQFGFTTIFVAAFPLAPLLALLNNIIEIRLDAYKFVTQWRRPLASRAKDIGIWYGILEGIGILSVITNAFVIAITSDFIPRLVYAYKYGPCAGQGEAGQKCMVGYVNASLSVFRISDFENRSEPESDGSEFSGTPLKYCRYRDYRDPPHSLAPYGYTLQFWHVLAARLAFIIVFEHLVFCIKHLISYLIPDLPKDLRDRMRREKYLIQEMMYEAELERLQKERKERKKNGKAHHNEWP
Assay: whole-cell patch clamp, block of ionomycin-activated current
Assay type: cell-based
Conditions: 100 uM niflumic acid; extracellular Ringer with 1 uM ionomycin, pH 7.2, room temperature; channel blocker

**Q.** For `O=C(O)c1cccnc1Nc1cccc(C(F)(F)F)c1` [niflumic acid], which “whole-cell patch clamp, block of ionomycin-activated current” value is on record?
**A.** The value was “The Ano4-dependent current was blocked by the application of the fenamate niflumic acid”.
